According to paper PMC4601594, “An active site–tail interaction in the structure of hexahistidine-tagged Thermoplasma acidophilum citrate synthase” (Acta Crystallographica. Section F, Structural Biology …, 2015):
One block for each molecule: values may come before it.

Legend:
[1] = target: T1, citrate synthase (TpCSH6) (Thermoplasma acidophilum, UniProt P21553); experiment: fluorescence titration of the TpCSH6–OAA complex (CitMX formation); also competitive inhibition versus AcCoA, Ki =[…]; format: binding
T1 construct: gene gltA; full-length TpCS (lacking N-terminal Met) with C-terminal His6 tag (TpCSH6)
T1 sequence (P21553 2-385): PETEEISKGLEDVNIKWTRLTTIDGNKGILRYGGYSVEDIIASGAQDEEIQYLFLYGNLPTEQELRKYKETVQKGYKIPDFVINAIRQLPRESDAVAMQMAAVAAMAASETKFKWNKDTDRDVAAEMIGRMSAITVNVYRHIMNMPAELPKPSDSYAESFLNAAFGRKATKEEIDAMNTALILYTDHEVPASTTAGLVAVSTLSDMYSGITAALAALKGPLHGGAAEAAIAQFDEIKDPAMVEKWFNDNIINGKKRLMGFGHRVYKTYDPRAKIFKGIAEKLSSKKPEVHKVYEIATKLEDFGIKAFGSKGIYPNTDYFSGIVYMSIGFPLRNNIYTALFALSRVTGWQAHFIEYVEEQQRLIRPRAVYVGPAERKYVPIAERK

[2] = target: T2, citrate synthase (TpCSH6-H222Q) (Thermoplasma acidophilum, UniProt P21553, H223Q); experiment: fluorescence titration (Trp348 quenching); format: binding
T2 construct: gene gltA; full-length TpCS with C-terminal His6 tag, H222Q mutant

[3] = target: T1, citrate synthase (TpCSH6); experiment: fluorescence titration (Trp348 quenching); format: binding
purified protein = substrate: CC(=O)SCCNC(=O)CCNC(=O)[C@H](O)C(C)(C)COP(=O)(O)OP(=O)(O)OC[C@H]1O[C@@H](n2cnc3c(N)ncnc32)[C@H](O)[C@@H]1OP(=O)(O)O; experiment: purified protein; settings: oxaloacetate (co-substrate) AcCoA binding site (His222, Asp317)

T2 sequence (P21553 2-385 H223Q): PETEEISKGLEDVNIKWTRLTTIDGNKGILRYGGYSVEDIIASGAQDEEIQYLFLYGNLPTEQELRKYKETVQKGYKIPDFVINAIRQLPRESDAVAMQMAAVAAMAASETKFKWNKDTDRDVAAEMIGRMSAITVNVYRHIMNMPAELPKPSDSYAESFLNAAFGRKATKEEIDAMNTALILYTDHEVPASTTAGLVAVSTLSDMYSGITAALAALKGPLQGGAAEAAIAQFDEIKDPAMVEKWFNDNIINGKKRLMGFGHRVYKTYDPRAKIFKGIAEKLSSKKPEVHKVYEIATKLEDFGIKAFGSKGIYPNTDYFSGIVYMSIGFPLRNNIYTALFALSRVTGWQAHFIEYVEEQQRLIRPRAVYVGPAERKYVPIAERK

Kd [1]: 1.5 µM
Molecule: CC(=O)CCCNC(=O)CCNC(=O)[C@H](O)C(C)(C)COP(=O)(O)OP(=O)(O)OC[C@H]1O[C@@H](n2cnc3c(N)ncnc32)[C@H](O)[C@@H]1OP(=O)(O)O [AcMX, dethiaacetyl-CoA]

Molecule: O=C(O)CC(=O)C(=O)O [OAA, oxaloacetate]
Kd [2]: 19 µM | Kd [3]: 0.76 µM

B1: citrate synthase (TpCSH6) (Thermoplasma acidophilum DSM 1728) (protein)
chain: PETEEISKGLEDVNIKWTRLTTIDGNKGILRYGGYSVEDIIASGAQDEEIQYLFLYGNLPTEQELRKYKETVQKGYKIPDFVINAIRQLPRESDAVAMQMAAVAAMAASETKFKWNKDTDRDVAAEMIGRMSAITVNVYRHIMNMPAELPKPSDSYAESFLNAAFGRKATKEEIDAMNTALILYTDHEVPASTTAGLVAVSTLSDMYSGITAALAALKGPLHGGAAEAAIAQFDEIKDPAMVEKWFNDNIINGKKRLMGFGHRVYKTYDPRAKIFKGIAEKLSSKKPEVHKVYEIATKLEDFGIKAFGSKGIYPNTDYFSGIVYMSIGFPLRNNIYTALFALSRVTGWQAHFIEYVEEQQRLIRPRAVYVGPAERKYVPIAERK
Km (purified protein): 3.0 µM
